Source: ChEMBL document CHEMBL1152085, “Novel 3-deoxy-3-descladinosyl-6-O-methyl erythromycin a analogues. Synthesis and in vitro activity” (1997)
Converted amounts (≈) assume the structure as drawn.

How the values were obtained:
Assay type in all cases: functional
Staphylococcus aureus [1] = test: Tested in vitro for minimum inhibitory concentration to produce antibacterial activity against Staphylococcus aureus NCTC-10649M in presence of erythromycin A
Streptococcus pyogenes [2] = test: Tested in vitro for minimum inhibitory concentration to produce antibacterial activity against Streptococcus pyogenes PIU 2548 in presence of erythromycin A
Streptococcus equinus [3] = test: Tested in vitro for minimum inhibitory concentration to produce antibacterial activity against Streptococcus bovis A-5169
Staphylococcus aureus [4] = test: Tested in vitro for minimum inhibitory concentration to produce antibacterial activity against Staphylococcus aureus A-5278
Streptococcus pyogenes [5] = test: Tested in vitro for minimum inhibitory concentration to produce antibacterial activity against Streptococcus pyogenes PIU 2548
Streptococcus pyogenes [6] = test: Tested in vitro for minimum inhibitory concentration to produce antibacterial activity against Streptococcus pyogenes 930 in presence of erythromycin A
Staphylococcus aureus [7] = test: Tested in vitro for minimum inhibitory concentration to produce antibacterial activity against Staphylococcus aureus NCTC-10649M
Escherichia coli [8] = test: Tested in vitro for minimum inhibitory concentration to produce antibacterial activity against Escherichia coli JUHL
Enterococcus faecium [9] = test: Tested in vitro for minimum inhibitory concentration to produce antibacterial activity against Enterococcus faecium ATCC 8043
Staphylococcus aureus [10] = test: Tested in vitro for minimum inhibitory concentration to produce antibacterial activity against Staphylococcus aureus ATCC 6538P
Staphylococcus aureus [11] = test: Tested in vitro for minimum inhibitory concentration to produce antibacterial activity against Staphylococcus aureus A-5278 in presence of erythromycin A
Staphylococcus aureus [12] = test: Tested in vitro for minimum inhibitory concentration to produce antibacterial activity against Staphylococcus aureus CMX 642A in presence of erythromycin A
Staphylococcus aureus [13] = test: Tested in vitro for minimum inhibitory concentration to produce antibacterial activity against Staphylococcus aureus ATCC 6538P in presence of erythromycin A
Streptococcus pyogenes [14] = test: Tested in vitro for minimum inhibitory concentration to produce antibacterial activity against Streptococcus pyogenes 930
Staphylococcus aureus [15] = test: Tested in vitro for minimum inhibitory concentration to produce antibacterial activity against Staphylococcus aureus 1775
Staphylococcus aureus [16] = test: Tested in vitro for minimum inhibitory concentration to produce antibacterial activity against Staphylococcus aureus A5177
Streptococcus equinus [17] = test: Tested in vitro for minimum inhibitory concentration to produce antibacterial activity against Streptococcus bovis A-5169 in presence of erythromycin A
[18] = test system: Staphylococcus epidermidis; test: Tested in vitro for minimum inhibitory concentration to produce antibacterial activity against Staphylococcus epidermidis 3519 in presence of erythromycin A
Staphylococcus aureus [19] = test: Tested in vitro for minimum inhibitory concentration to produce antibacterial activity against Staphylococcus aureus CMX 553 in presence of erythromycin A
Staphylococcus aureus [20] = test: Tested in vitro for minimum inhibitory concentration to produce antibacterial activity against Staphylococcus aureus CMX 642A
Staphylococcus aureus [21] = test: Tested in vitro for minimum inhibitory concentration to produce antibacterial activity against Staphylococcus aureus 1775 in presence of erythromycin A
Enterococcus faecium [22] = test: Tested in vitro for minimum inhibitory concentration to produce antibacterial activity against Enterococcus faecium ATCC 8043 in presence of erythromycin A
Streptococcus pyogenes [23] = test: Tested in vitro for minimum inhibitory concentration to produce antibacterial activity against Streptococcus pyogenes EES61
Staphylococcus aureus [24] = test: Tested in vitro for minimum inhibitory concentration to produce antibacterial activity against Staphylococcus aureus A5177 in presence of erythromycin A
[25] = test system: Staphylococcus epidermidis; test: Tested in vitro for minimum inhibitory concentration to produce antibacterial activity against Staphylococcus epidermidis 3519
Streptococcus agalactiae [26] = test: Tested in vitro for minimum inhibitory concentration to produce antibacterial activity against Streptococcus agalactiae CMX 508
Escherichia coli [27] = test: Tested in vitro for minimum inhibitory concentration to produce antibacterial activity against Escherichia coli JUHL in presence of erythromycin A
Escherichia coli [28] = test: Tested in vitro for minimum inhibitory concentration to produce antibacterial activity against Escherichia coli SS in presence of erythromycin A
Streptococcus pyogenes [29] = test: Tested in vitro for minimum inhibitory concentration to produce antibacterial activity against Streptococcus pyogenes EES61 in presence of erythromycin A
Staphylococcus aureus [30] = test: Tested in vitro for minimum inhibitory concentration to produce antibacterial activity against Staphylococcus aureus CMX 553
Escherichia coli [31] = test: Tested in vitro for minimum inhibitory concentration to produce antibacterial activity against Escherichia coli SS
Streptococcus agalactiae [32] = test: Tested in vitro for minimum inhibitory concentration to produce antibacterial activity against Streptococcus agalactiae CMX 508 in presence of erythromycin A

## CC[C@H]1OC(=O)[C@H](C)C[C@H](C)[C@@H](O[C@@H]2O[C@H](C)C[C@H](N(C)C)[C@H]2O)[C@](C)(OC)C[C@@H](C)C(=O)[C@H](C)[C@H]2OC(=O)O[C@@]21C
Staphylococcus aureus [1]
  MIC: 0.2 µg/mL
Streptococcus pyogenes [2]
  MIC: 6.2 µg/mL
Streptococcus equinus [3]
  MIC: 0.2 µg/mL (≈ 0.333 µM)
Staphylococcus aureus [4]
  MIC: > 100 µg/mL
Streptococcus pyogenes [5]
  MIC: 0.78 µg/mL (≈ 1.3 µM)
Streptococcus pyogenes [6]
  MIC: > 100 µg/mL
Staphylococcus aureus [7]
  MIC: 6.2 µg/mL (≈ 10.3 µM)
Escherichia coli [8]
  MIC: > 100 µg/mL
Enterococcus faecium [9]
  MIC: 0.78 µg/mL (≈ 1.3 µM)
Staphylococcus aureus [10]
  MIC: 6.2 µg/mL (≈ 10.3 µM)
Staphylococcus aureus [11]
  MIC: > 100 µg/mL
Staphylococcus aureus [12]
  MIC: 0.2 µg/mL
Staphylococcus aureus [13]
  MIC: 0.2 µg/mL
Streptococcus pyogenes [14]
  MIC: > 100 µg/mL
Staphylococcus aureus [15]
  MIC: > 100 µg/mL
Staphylococcus aureus [16]
  MIC: 3.1 µg/mL (≈ 5.17 µM)
Streptococcus equinus [17]
  MIC: 0.05 µg/mL
[18]
  MIC: 0.2 µg/mL
Staphylococcus aureus [19]
  MIC: 0.2 µg/mL
Staphylococcus aureus [20]
  MIC: 3.1 µg/mL (≈ 5.17 µM)
Staphylococcus aureus [21]
  MIC: > 100 µg/mL
Enterococcus faecium [22]
  MIC: 0.05 µg/mL
Streptococcus pyogenes [23]
  MIC: 0.2 µg/mL (≈ 0.333 µM)
Staphylococcus aureus [24]
  MIC: 3.1 µg/mL
[25]
  MIC: 6.2 µg/mL (≈ 10.3 µM)
Streptococcus agalactiae [26]
  MIC: 0.2 µg/mL (≈ 0.333 µM)
Escherichia coli [27]
  MIC: 50 µg/mL
Escherichia coli [28]
  MIC: 0.2 µg/mL
Streptococcus pyogenes [29]
  MIC: 0.01 µg/mL
Staphylococcus aureus [30]
  MIC: 3.1 µg/mL (≈ 5.17 µM)
Escherichia coli [31]
  MIC: 0.78 µg/mL (≈ 1.3 µM)
Streptococcus agalactiae [32]
  MIC: 0.01 µg/mL

## CC[C@H]1OC(=O)[C@H](C)C[C@H](C)[C@@H](O[C@@H]2O[C@H](C)C[C@H](N(C)C)[C@H]2O)[C@](C)(OC)C[C@@H](C)C(=O)/C(C)=C/[C@]1(C)O
Staphylococcus aureus [1]
  MIC: 0.39 µg/mL
Streptococcus pyogenes [2]
  MIC: 12.5 µg/mL
Streptococcus equinus [3]
  MIC: > 100 µg/mL
Staphylococcus aureus [4]
  MIC: > 100 µg/mL
Streptococcus pyogenes [5]
  MIC: > 100 µg/mL
Streptococcus pyogenes [6]
  MIC: 12.5 µg/mL
Staphylococcus aureus [7]
  MIC: > 100 µg/mL
Escherichia coli [8]
  MIC: > 100 µg/mL
Enterococcus faecium [9]
  MIC: > 100 µg/mL
Staphylococcus aureus [10]
  MIC: > 100 µg/mL
Staphylococcus aureus [11]
  MIC: > 100 µg/mL
Staphylococcus aureus [12]
  MIC: 0.39 µg/mL
Staphylococcus aureus [13]
  MIC: 0.39 µg/mL
Streptococcus pyogenes [14]
  MIC: > 100 µg/mL
Staphylococcus aureus [15]
  MIC: > 100 µg/mL
Staphylococcus aureus [16]
  MIC: > 100 µg/mL
Streptococcus equinus [17]
  MIC: 0.2 µg/mL
[18]
  MIC: 0.39 µg/mL
Staphylococcus aureus [19]
  MIC: 0.39 µg/mL
Staphylococcus aureus [20]
  MIC: > 100 µg/mL
Staphylococcus aureus [21]
  MIC: > 100 µg/mL
Enterococcus faecium [22]
  MIC: 0.2 µg/mL
Streptococcus pyogenes [23]
  MIC: 12.5 µg/mL (≈ 22.5 µM)
Staphylococcus aureus [24]
  MIC: 3.1 µg/mL
[25]
  MIC: > 100 µg/mL
Streptococcus agalactiae [26]
  MIC: 25 µg/mL (≈ 45 µM)
Escherichia coli [27]
  MIC: 50 µg/mL
Escherichia coli [28]
  MIC: 0.78 µg/mL
Streptococcus pyogenes [29]
  MIC: 0.01 µg/mL
Staphylococcus aureus [30]
  MIC: > 100 µg/mL
Escherichia coli [31]
  MIC: > 100 µg/mL
Streptococcus agalactiae [32]
  MIC: 0.02 µg/mL

## CC[C@H]1OC(=O)[C@H](C)C[C@H](C)[C@@H](O[C@@H]2O[C@H](C)C[C@H](N(C)C)[C@H]2O)[C@](C)(OC)C[C@@H](C)C(=O)[C@H](C)[C@@H](O)[C@]1(C)O
Staphylococcus aureus [1]
  MIC: 0.2 µg/mL
Streptococcus pyogenes [2]
  MIC: 6.2 µg/mL
Streptococcus equinus [3]
  MIC: 0.78 µg/mL (≈ 1.36 µM)
Staphylococcus aureus [4]
  MIC: > 100 µg/mL
Streptococcus pyogenes [5]
  MIC: 3.1 µg/mL (≈ 5.4 µM)
Streptococcus pyogenes [6]
  MIC: > 100 µg/mL
Staphylococcus aureus [7]
  MIC: 6.2 µg/mL (≈ 10.8 µM)
Escherichia coli [8]
  MIC: > 100 µg/mL
Enterococcus faecium [9]
  MIC: 25 µg/mL (≈ 43.6 µM)
Staphylococcus aureus [10]
  MIC: 25 µg/mL (≈ 43.6 µM)
Staphylococcus aureus [11]
  MIC: > 100 µg/mL
Staphylococcus aureus [12]
  MIC: 0.2 µg/mL
Staphylococcus aureus [13]
  MIC: 0.1 µg/mL
Streptococcus pyogenes [14]
  MIC: > 100 µg/mL
Staphylococcus aureus [15]
  MIC: > 100 µg/mL
Staphylococcus aureus [16]
  MIC: 25 µg/mL (≈ 43.6 µM)
Streptococcus equinus [17]
  MIC: 0.02 µg/mL
[18]
  MIC: 0.1 µg/mL
Staphylococcus aureus [19]
  MIC: 0.2 µg/mL
Staphylococcus aureus [20]
  MIC: 25 µg/mL (≈ 43.6 µM)
Staphylococcus aureus [21]
  MIC: > 100 µg/mL
Enterococcus faecium [22]
  MIC: 0.05 µg/mL
Streptococcus pyogenes [23]
  MIC: 1.56 µg/mL (≈ 2.72 µM)
Staphylococcus aureus [24]
  MIC: 1.56 µg/mL
[25]
  MIC: 50 µg/mL (≈ 87.1 µM)
Streptococcus agalactiae [26]
  MIC: 3.1 µg/mL (≈ 5.4 µM)
Escherichia coli [27]
  MIC: 50 µg/mL
Escherichia coli [28]
  MIC: 0.1 µg/mL
Streptococcus pyogenes [29]
  MIC: 0.02 µg/mL
Staphylococcus aureus [30]
  MIC: 25 µg/mL (≈ 43.6 µM)
Escherichia coli [31]
  MIC: 0.78 µg/mL (≈ 1.36 µM)
Streptococcus agalactiae [32]
  MIC: 0.02 µg/mL

## CC[C@H]1OC(=O)[C@H](C)[C@@H](O[C@H]2C[C@@](C)(OC)[C@@H](O)[C@H](C)O2)[C@H](C)[C@@H](O[C@@H]2O[C@H](C)C[C@H](N(C)C)[C@H]2O)[C@](C)(OC)C[C@@H](C)C(=O)[C@H](C)[C@@H](O)[C@]1(C)O [CLARITHROMYCIN]
Staphylococcus aureus [1]
  MIC: 0.03 µg/mL
Streptococcus pyogenes [2]
  MIC: 8 µg/mL
Streptococcus equinus [3]
  MIC: 0.01 µg/mL (≈ 0.0134 µM)
Staphylococcus aureus [4]
  MIC: > 100 µg/mL
Streptococcus pyogenes [5]
  MIC: 8 µg/mL (≈ 10.7 µM)
Streptococcus pyogenes [6]
  MIC: > 100 µg/mL
Staphylococcus aureus [7]
  MIC: 0.03 µg/mL (≈ 0.0401 µM)
Escherichia coli [8]
  MIC: 100 µg/mL (≈ 134 µM)
Enterococcus faecium [9]
  MIC: 0.05 µg/mL (≈ 0.0668 µM)
Staphylococcus aureus [10]
  MIC: 0.2 µg/mL (≈ 0.267 µM)
Staphylococcus aureus [11]
  MIC: > 100 µg/mL
Staphylococcus aureus [12]
  MIC: 0.03 µg/mL
Staphylococcus aureus [13]
  MIC: 0.2 µg/mL
Streptococcus pyogenes [14]
  MIC: > 100 µg/mL
Staphylococcus aureus [15]
  MIC: > 100 µg/mL
Staphylococcus aureus [16]
  MIC: 1.56 µg/mL (≈ 2.09 µM)
Streptococcus equinus [17]
  MIC: 0.01 µg/mL
[18]
  MIC: 0.03 µg/mL
Staphylococcus aureus [19]
  MIC: 0.12 µg/mL
Staphylococcus aureus [20]
  MIC: 0.03 µg/mL (≈ 0.0401 µM)
Staphylococcus aureus [21]
  MIC: > 100 µg/mL
Enterococcus faecium [22]
  MIC: 0.05 µg/mL
Streptococcus pyogenes [23]
  MIC: 0.01 µg/mL (≈ 0.0134 µM)
Staphylococcus aureus [24]
  MIC: 3.1 µg/mL
[25]
  MIC: 0.12 µg/mL (≈ 0.16 µM)
Streptococcus agalactiae [26]
  MIC: 0.02 µg/mL (≈ 0.0267 µM)
Escherichia coli [27]
  MIC: 50 µg/mL
Escherichia coli [28]
  MIC: 0.39 µg/mL
Streptococcus pyogenes [29]
  MIC: 0.01 µg/mL
Staphylococcus aureus [30]
  MIC: 0.12 µg/mL (≈ 0.16 µM)
Escherichia coli [31]
  MIC: 0.39 µg/mL (≈ 0.521 µM)
Streptococcus agalactiae [32]
  MIC: 0.02 µg/mL
